Laboratory results from US20060099161A1, “Skin preparations for external use” (priority 2002, published 2006).

Assays:
[1] = Visual evaluation of discoloration of powder lotion-type antiperspirant lotions; format: physicochemical
Experimental: Recipes shown in Table 1-1 and Table 1-2 were used to prepare powder lotion-type antiperspirant lotions and the degree of discoloration was evaluated visually. For Comparative examples, a recipe containing no trisodium ethylenediaminehydroxyethyl triacetate and a recipe containing a chelating agent EDTA-3Na.2H2O instead of trisodium ethylenediaminehydroxyethyl triacetate were investigated. The degree of discoloration was evaluated by giving ◯ to those that are within the acceptable range for skin treatment composition, and × to those that are outside of this range.

[2] = Staining of clothing after application, sunlight exposure and washing (visual observation); format: physicochemical
Experimental: Recipes shown in Table 3-1 and Table 3-2 were used to prepare powder lotion-type antiperspirant lotions and a prescribed amount (4 micrograms/cm^2) is applied on clothing. The clothing was exposed to sunlight (10 minutes) and washed with common laundry detergent in a washing machine; the degree of staining was then evaluated by visual observation. For Comparative examples, recipes not containing polyoxyethylene polyoxypropylene 2-decyltetradecyl ether (20-28 E.O.) (10-16 P.O.) and recipes containing polyoxyethylene (E.O. 60) were investigated. The degree of staining was evaluated by giving ◯ to those that are within the acceptable range for skin treatment compositions, and × to those that are outside of this range.

anti-staining effect of the ingredient in skin treatment compositions containing anti-bacterial zeolite [2]	Molecule	anti-discoloration effect of the ingredient in skin treatment compositions containing anti-bacterial zeolite [1]
–	O=C([O-])CN(CCN(CC(=O)[O-])CC(=O)O)CC(=O)[O-].[Na+].[Na+].[Na+] [EDTA-3Na]	do not have the anti-discoloration effect
–	O=C([O-])CN(CCO)CCN(CC(=O)[O-])CC(=O)[O-].[Na+].[Na+].[Na+] [trisalt ethylenediaminehydroxyethyl triacetate]	acts as an anti-discoloration agent
do not have an anti-staining effect	polyoxyethylene (E.O. 60) hydrogenated castor oil	–
acts as an anti-staining agent	polyoxyethylene polyoxypropylene 2-decyltetradecyl ether (20-28 E.O.) (10-16 P.O.)	–
